Source: patent US12180159B2, “Activators of the unfolded protein response” (The Board of Trustees of the University of Illinois, priority 2018, dated 2024)

Legend:
[1] = system: ERα cell lines; test: 24-hour crystal violet assay and long-term cell culturing; type: cell-based, human; settings: 24-hour crystal violet assay and long-term culture
Experimental: FIG. 36. Discovery of SERK-F6 (also known as, C(−)-105, (−)-105, (R)-105, (−)-1, or (R)-1), a compound that kills ERα-positive cancer cells. a, Chemical structures of BHPI and racemic compound 1 (i.e. (±)-1), and their cytotoxic activity on T47D breast cancer cells after 24-hour incubations with concentrations as indicated in nM. Cells were stained with annexin V-FITC and PI dyes prior to analysis via flow cytometry. […] Cells were incubated with SERK-F6 or positive control, Raptinal, for 24 hours and then stained with annexin V-FITC and PI dyes and analyzed via flow cytometry. Error bars represent S.E.M of 3 independent replicates. c, IC50 values of SERK-F6 after 24-hour incubation against a panel of cancer cell lines grouped by their reported ERα status. Cell viability was measured by Alamar blue fluorescence and set relative to a vehicle control and a quantitative dead control treated with Raptinal. Error bars represent S.E.M of 3 independent experiments. d, Crystal violet staining of T47D cells after 24-hour incubations with compounds and concentrations as indicated. Image is representative of 2 independent experiments. e,f, Long-term cell culture experiment with T47D, TDG, and TYS cells. […] Cell number was determined by MTS. […]
An important aspect for cytotoxic therapy is the ability to quantitatively kill a cell population. […]

[2] = system: MCF-7 cells; type: cell-based
Experimental: FIG. 36. Discovery of SERK-F6 (also known as, C(−)-105, (−)-105, (R)-105, (−)-1, or (R)-1), a compound that kills ERα-positive cancer cells. a, Chemical structures of BHPI and racemic compound 1 (i.e. (±)-1), and their cytotoxic activity on T47D breast cancer cells after 24-hour incubations with concentrations as indicated in nM. Cells were stained with annexin V-FITC and PI dyes prior to analysis via flow cytometry. […] Cells were incubated with SERK-F6 or positive control, Raptinal, for 24 hours and then stained with annexin V-FITC and PI dyes and analyzed via flow cytometry. Error bars represent S.E.M of 3 independent replicates. c, IC50 values of SERK-F6 after 24-hour incubation against a panel of cancer cell lines grouped by their reported ERα status. Cell viability was measured by Alamar blue fluorescence and set relative to a vehicle control and a quantitative dead control treated with Raptinal. Error bars represent S.E.M of 3 independent experiments. d, Crystal violet staining of T47D cells after 24-hour incubations with compounds and concentrations as indicated. […] Cell number was determined by MTS.
Through a medicinal chemistry campaign, (±)-1 was discovered to show an unexpected cytotoxic phenotype (FIG. 36A). […] The dose dependent activity of SERK-F6 was determined against a panel of cancer cell lines (FIG. 36C and FIG. 37A) for ERα.

[3] = system: ATP levels in TYS-Luc cells; test: Intracellular ATP levels; type: cell-based, human; settings: 1,000 nM
Experimental: TYS-Luc cells were maintained DMSO vehicle (Veh), 1,000 nM BHPI, 1,000 nM (−)-105 with and without 10,000 nM thapsigargin (THG) for the indicated times. ATP levels were determines using a kit and relative ATP levels were from a standard curve. […] (n=3±SEM).

[4] = system: partially BHPI-resistant T47D clones 1, 3, 8, and 11; test: Growth of partially BHPI-resistant T47D clones (MTS); type: cell-based, human; settings: 100 nM and 1 μM, 4 days
Experimental: ERα containing T47D human breast cancer cells able to survive in 1 μM BHPI were selected by clonal outgrowth. The effect of 100 nM and 1 μM BHPI and (−)-105 on growth of the (BHPI-sensitive) parental T47D cells and partially BHPI-resistant T47D clones 1, 3, 8, and 11 was evaluated. 4,000 cells/well were plated. Cell number was determined by MTS assay from a standard curve of absorbance versus cell number. […] Thus, in 4 days (−)-105 killed some, but not all, of the resistant cells.

[5] = system: MYS and MDG cells (MCF-7 with Y537S or D538G ERα); test: MYS-luc / MDG-luc orthotopic and metastatic tumor models; type: in vivo, mouse
From the text: FIG. 41. […]
FIG. 43. SERK-F6-mediated eradication of MYS/MDG tumors is dependent on quantitative cell killing. a-b, MYS-luc. orthotopic tumors were established in NSG ovariectomized mice (no E2 pellet, ˜45 days to establish) and dosed daily as indicated (n=5-6). b, Treatment of MYS-luc. tumors were stopped after 21 daily doses of SERK-F6 and mice tumor burden was tracked via bioluminescence. […]

O=C1Nc2c(C(F)(F)F)cccc2C1(c1ccc(O)cc1)c1ccc(OC(F)(F)F)cc1 (single isomer, unassigned; (-)) [(−)-105, 3-(4-hydroxyphenyl)-3-(4-(trifluoromethoxy)phenyl)-7-(trifluoromethyl)indolin-2-one]
quantitative killing of ERα cell lines [1]: quantitatively kills
cytotoxicity to ERα positive MCF-7 cells [2]: cytotoxic
death of MCF-7 cells ([2]; FIG. 10): induces dose-dependent death
intracellular ATP levels [3]: reduces intracellular ATP levels
growth of the BHPI-resistant clones [4]: completely blocked the growth of the resistant clones
effect on metastatic tumor burden ([5]; metastatic model): eradicates metastatic tumor burden
effect on MYS / MDG tumors ([5]; mouse, in vivo): Dramatic tumor regressions
